What was measured:
[1] = test system: HDL cholesterol; assay: in vivo standard pharmacological test procedure measuring elevation of HDL cholesterol levels in cholesterol/cholic acid-fed rats; set-up: species or system Male Sprague-Dawley rats; conditions: serum, eight days of treatment; for change in vivo at 100 mg/kg / HDL Cholesterol Level Increase (%): dose 100 mg/kg mixed in diet; for change in vivo at 50 mg/kg: dose 50 mg/kg mixed in diet
Method: Representative compounds of this invention were evaluated in an in vivo standard pharmacological test procedure which measured the ability of the compounds of this invention to elevate HDL cholesterol levels. The following briefly describes the procedure used and results obtained. Male Sprague-Dawley rats weighing 200-225 g were housed two per cage and fed Purina Rodent Chow Special Mix 5001-S supplemented with 0.25% cholic acid and 1.0% cholesterol and water ad libitum for 8 days. Each test substance was administered to a group of six rats fed the same diet with the test diet mixed in as 0.005-0.1% of the total diet. Body weight and food consumption were recorded prior to diet administration and at termination. Typical doses of the test substances were 5-100 mg/kg/day.
At termination, blood was collected from anesthetized rats and the serum was separated by centrifugation. Total serum cholesterol was assayed using the Sigma Diagnostics enzymatic kit for the determination of cholesterol, Procedure No. 352, modified for use with ninety-six well microtiter plates. After reconstitutiton with water the reagent contains 300 U/l cholesterol oxidase, 100 U/l cholesterol esterase, 1000 U/l horse radish peroxidase, 0.3 mmol/l 4-aminoantipyrine and 30.0 mmol/l p-hydroxybenzene sulfonate in a pH 6.5 buffer. In the reaction cholesterol was oxidized to produce hydrogen peroxide which was used to form a quinoneimine dye. The concentration of dye formed was measured spectrophotometrically by absorbance at 490 nm after incubation at 25° C. for 30 minutes. The concentration of cholesterol was determined for each serum sample relative to a commercial standard from Sigma.
HDL cholesterol concentrations in serum were determined by separation of lipoprotein classes by fast protein liquid chromatography (FPLC) by a modification of the method of Kieft et al., (J. Lipid Res., 32, 859-866 (1991). Using this methodology, […] of serum was injected onto Superose 12 and Superose 6 (Pharmacia), in series, with a column buffer of 0.05 M Tris (2-amino-2-hydroxymethyl-1,3-propanediol) and 0.15 M sodium chloride at a flow rate of 0.5 mL/min. The eluted sample was mixed on line with Boehringer-Mannheim cholesterol reagent pumped at 0.2 mL/min. The combined eluents were mixed and incubated on line through a knitted coil (Applied Biosciences) maintained at a temperature of 45° C. The eluent was monitored by measuring absorbance at 490 nm and gives a continuous absorbance signal proportional to the cholesterol concentration. The relative concentration for each lipoprotein class was calculated as the percent of total absorbance. HDL cholesterol concentration in serum was calculated as the percent of total cholesterol as determined by FPLC multiplied by the total serum cholesterol concentration.
In Examples 5-7, 9, 10 and 12-20 the test compounds were administered at a dose of 100 mg/kg. In Examples 1, 2, 3 and 11, the test compounds were administered at a dose of 50 mg/kg. In Example 4, the test compound was administered at a dose of 46 mg/kg and in Example 8 at a dose of 90 mg/kg. The duration of treatment for all examples was eight days.

[2] = Rattus norvegicus, feed or water, 192 h, read-out: HDL Cholesterol Level Increase (%)

SMILES | melting point [°C] | change in vivo at 100 mg/kg [1, 2] [%] | also measured
Cc1cccc(Cl)c1N1CCCN(CC(C)C)C1=S [Example 20, 1-(6-Chloro-2-methyl-phenyl)-3-isobutyl-3,4,5,6-tetrahydro-pyrimidine-2(1H)-thione] | 119 to 121 | 24 | 
C=CCN1CCCN(c2c(C)cccc2Cl)C1=S [Example 12, 3-Allyl-1-(6-chloro-2-methyl-phenyl)-3,4,5,6-tetrahydro-pyrimidine-2(1H)-thione] | 82 to 84 | 19 | 
CCN1CCCN(c2ccc(Cl)cc2C)C1=S [Example 3, 1-(4-Chloro-2-methyl-phenyl)-3-ethyl-3,4,5,6-tetrahydro-pyrimidine-2(1H)-thione] | 116 to 118 |  | change in vivo at 50 mg/kg [1, 2]: 152%
Cc1cc(Cl)ccc1N1CCCN(CC(C)C)C1=S [Example 17, 1-(4-Chloro-2-methyl-phenyl)-3-isobutyl-3,4,5,6-tetrahydro-pyrimidine-2(1H)-thione] | 88 to 90 | 12 | 
Cc1cccc(Cl)c1N1CCCN(C(C)C)C1=S [Example 15, 1-(6-Chloro-2-methyl-phenyl)-3-isopropyl-3,4,5,6-tetrahydro-pyrimidine-2(1H)-thione] | 135 to 136 | 86 | 
C=CCN1CCCN(c2ccc(Cl)cc2C)C1=S [Example 10, 3-Allyl-1-(4-chloro-2-methyl-phenly)-3,4,5,6-tetrahydro-pyrimidine-2(1H)-thione] |  |  | HDL Cholesterol Level Increase (%) [1]: 57%
Cc1ccc(Cl)cc1N1CCCN(CC(C)C)C1=S [Example 14, 1-(5-Chloro-2-methyl-phenyl)-3-isobutyl-3,4,5,6-tetrahydro-pyrimidine-2-(1H)-thione] |  |  | HDL Cholesterol Level Increase (%) [1]: 66%
Cc1cc(Cl)ccc1N1CCCNC1=S [Example 1, 1-(4-Chloro-2-methyl-phenyl)-3,4,5,6-tetrahydro-pyrimidine-2(1H)-thione] | 266 to 268 |  | change in vivo at 50 mg/kg [1, 2]: 86%
Cc1cccc(Cl)c1N1CCCN(C)C1=S [Example 13, 1-(6-Chloro-2-methyl-phenyl)-3-methyl-3,4,5,6-tetrahydro-pyrimidine-2(1H)-thione] | 164 to 165 | 81 | 
Cc1cc(Cl)ccc1N1CCCN(C(C)C)C1=S [Example 7, 1-(4-Chloro-2-methyl-phenyl)-3-isopropyl-3,4,5,6-tetrahydro-pyrimidine-2(1H)-thione] | 147 to 149 | 92 | 
Cc1cccc(C)c1N1CCCNC1=S [Example 4, 1-(2,6-Dimethyl-phenyl)-3,4,5,6-tetrahydro-pyrimidine-2(1H)-thione] | 249 to 251 |  | change in vivo at 46 mg/kg ([1]; Rattus norvegicus, feed or water, 192 h, dose 46 mg/kg mixed in diet, read-out: HDL Cholesterol Level Increase (%)): 34%
CCN1CCCN(c2c(C)cccc2Cl)C1=S [Example 16, 1-(6-Chloro-2-methyl-phenyl)-3-ethyl-3,4,5,6-tetrahydro-pyrimidine-2(1H)-thione] | 88 to 90 | 85 | 
S=C1NCCCN1c1ccccc1 [Example 2, 1-Phenyl-3,4,5,6-tetrahydro-pyrimidine-2(1H)-thione] | 211 to 212 |  | change in vivo at 50 mg/kg [1, 2]: 20%

Second part, led by results:

melting point [°C] | SMILES | change in vivo at 100 mg/kg [1, 2] [%] | also measured
143 to 145 | Cc1ccc(Cl)cc1N1CCCN(C)C1=S [Example 9, 1-(5-Chloro-2-methyl-phenyl)-3-methyl-3,4,5,6-tetrahydro-pyrimidine-2(1H)-thione] | 143 | 
143 to 145 | Cc1cc(Cl)ccc1N1CCCN(C)C1=S [Example 11, 1-(4-Chloro-2-methyl-phenyl)-3-methyl-3,4,5,6-tetrahydro-pyrimidine-2(1H)thione] |  | change in vivo at 50 mg/kg [1, 2]: 86%
89 to 91 | Cc1cccc(Cl)c1N1CCCN(C2CCC2)C1=S [Example 18, 1-(6-Chloro-2-methyl-phenyl)-3-cyclobutyl-3,4,5,6-tetrahydro-pyrimidine-2(1H)-thione] | 42 | 
111 to 112 | CCN1CCCN(c2cc(Cl)ccc2C)C1=S [Example 5, 1-(5-Chloro-2-methyl-phenyl)-3-ethyl-3,4,5,6-tetrahydro-pyrimidine-2(1H)-thione] | 183 | 
152 to 154 | Cc1ccc(Cl)cc1N1CCCN(C2CCC2)C1=S [Example 19, 1-(5-Chloro-2-methyl-phenyl)-3-cyclobutyl-3,4,5,6-tetrahydro-pyrimidine-2(1H)-thione] | 37 | 
176 to 178 | Cc1ccc(Cl)cc1N1CCCN(C(C)C)C1=S [Example 6, 1-(5-Chloro-2-methyl-phenyl)-3-isopropyl-3,4,5,6-tetrahydro-pyrimidine-2(1H)-thione] | 137 | 
71 to 72 | C=CCN1CCCN(c2cc(Cl)ccc2C)C1=S [Example 8, 3-Allyl-1-(5-chloro-2-methyl-phenyl)-3,4,5,6-tetrahydro-pyrimidine-2(1H)-thione] |  | change in vivo at 90 mg/kg ([1]; Rattus norvegicus, feed or water, 192 h, dose 90 mg/kg mixed in diet, read-out: HDL Cholesterol Level Increase (%)): 21%
